Laboratory results as given in patent publication US20120295923A1, “Aminocyclohexanes and Aminotetrahydropyrans and Related Compounds As Gamma-Secretase Modulators” (PFIZER INC., priority 2010, published 2012).
Where a name gives a salt, the structure may show the parent alone.

System: γ-secretase; production of amyloid beta protein Aβ(1-42)
Assay: Cell-Based γ-Secretase Assay with ELISA Readout
Settings: human WT-APP overexpressing CHO cells; footnote 8: single determination; read-out: Aβ 42B IC50 (nM) (Geometric Mean of 2-8 Determinations)
Experimental: The ability of compounds to modulate production of amyloid beta protein A6(1-42) was determined using human WT-APP overexpressing CHO cells. Cells were plated at 22,000 cells/100 μL well in 96 well tissue culture treated, clear plates (Falcon) in DMEM/F12 based medium and incubated for 24 hours at 37° C. Compounds for testing were diluted in 100% DMSO to achieve an eleven points, half log, dose response for IC50 determinations. Compounds were added in fresh medium to achieve 1% final DMSO. Appropriate vehicle and inhibitor controls were added to obtain maximum and minimum inhibition values for the assay before the plates were incubated for about 24 hours at 37° C.
Coating of ELISA assay plates was initiated by addition of 50 μL/well of an in-house Aβ(1-42) specific antibody at (4 μg/mL) in 0.1 M NaHCO3 (pH 9.0) into black 384-well Maxisorp® plates (Nunc) and incubated overnight at 4° C. The capture antibody was then aspirated from the ELISA assay plates and 100 μL/well of Blocking Buffer (Dulbecco's PBS, 1.5% BSA (Sigma A7030)) added. Ambient temperature incubation was allowed to proceed for a minimum of two hours before washing 2×100 μL with Wash Buffer (Dulbecco's PBS, 0.05% Tween 20). Assay Buffer (Dulbecco's PBS, 1.0% BSA (Sigma A7030), 0.05% Tween 20) 20 μL/well was then added.
After incubation overnight at 37° C., 5% CO2, 40 μL (in duplicate) of experimental conditioned media were transferred into wells of the blocked ELISA plates containing the capture antibody, followed by overnight incubation at 4° C.
After overnight incubation of the ELISA assay plates at 4° C., unbound Aβ peptides were removed thorough (4×100 μL) washes with Wash Buffer. Europium (Eu) labeled (custom labeled, Perkin Elmer) Aβ(1-16) 6e10 Monoclonal Antibody (Covance #SIG-39320 was added, (50 μL/well Eu-6e10 @ 1:5000, 20 uM EDTA) in Assay Buffer. Incubation at ambient temperature for a minimum of 2 hours was followed by (4×100 μL) washes with Wash Buffer, before 50 μL/well of Delfia Enhancement Solution (PerkinElmer) was added. Following a one hour ambient temperature incubation, the plates were read on an EnVision plate reader (PerkinElmer) using standard DELFIA TRF settings. Data analysis including inhibitory IC50 determination was performed using nonlinear regression fit analysis (in-house software) and the appropriate plate mean values for the maximum and minimum inhibition controls.

Structure (SMILES)	IC50 [nM]
O=C(O)C[C@@H]1CC[C@@H](N(CC2CCCC2)CC2CCCC2)[C@H](c2ccc(C(F)(F)F)nc2)O1 [Example 19, {(2S,5R,6S)-5-[bis(cyclopentyl-methyl)amino]-6-[6-(trifluoromethyl)pyridin-3-yl]tetrahydro-2H-pyran-2-yl}acetic acid]	837
CC(C)CCN(CCC(F)(F)F)[C@@H]1CC[C@@H](CC(=O)O)C[C@H]1c1ccc(C(F)(F)F)nc1 [Example 12, {(1R,3S,4R)-4-[(3-methylbutyl) (3,3,3-trifluoro-propyl)amino]-3-[6-(trifluoromethyl)pyridin-3-yl]cyclohexyl}acetic acid]	1370
CC(C)CCN(CCC(F)(F)F)[C@@H]1CC[C@@H](CC(=O)O)C[C@H]1c1ccc(C(F)(F)F)cc1 [Example 11, {(1R,3S,4R)-4-[(3-methylbutyl) (3,3,3-trifluoropropyl)amino]-3-[4-(trifluoromethyl)phenyl]cyclohexyl} acetic acid, hydrochloride salt]	470
CC(C)CCN(CC1(F)CCCCC1)[C@@H]1CC[C@@H](CC(=O)O)C[C@H]1c1ccc(C(F)(F)F)cc1 [Example 14, {(1R,3S,4R)-4-{[(1-fluorocyclo-hexyl)methyl](3-methylbutyl)amino}-3-[4-(trifluoromethyl)phenyl]cyclohexyl} acetic acid]	103

Same assay, conditions: human WT-APP overexpressing CHO cells; geometric mean of 2-4 determinations unless otherwise indicated (footnote 10: 6-8; footnote 14: single determination); read-out: Aβ 42B IC50

Structure (SMILES)	IC50 [nM]
CC(CN(CC1CCCC1)[C@@H]1CC[C@@H](CC(=O)O)C[C@H]1c1ccc(Cl)cc1)C(F)(F)F (stereo partly drawn) [Example 51, {(1R,3S,4R)-3-(4-chlorophenyl)-4-[(cyclopentylmethyl)(3,3,3-trifluoro-2-methylpropyl)amino]cyclohexyl}acetic acid, trifluoroacetate salt]	382
O=C(O)C[C@@H]1CC[C@@H](N(CCC2CCCCC2)CC2CCCC2)[C@H](c2ccc(C(F)(F)F)cc2)C1 [Example 40, {(1R,3S,4R)-4-[(2-cyclohexylethyl)(cyclopentyl-methyl)amino]-3-[4-(trifluoromethyl)phenyl]cyclohexyl}acetic acid, trifluoroacetate salt]	621
CC(C)CN(CC1(F)CCCCC1)[C@@H]1CC[C@@H](CC(=O)O)C[C@H]1c1ccc(C(F)(F)F)cc1 [Example 52, {(1R,3S,4R)-4-{[(1-fluorocyclohexyl)methyl] (isobutyl)amino}-3-[4-(trifluoromethyl)phenyl]cyclohexyl}acetic acid, trifluoroacetate salt]	190
O=C(O)C[C@@H]1CC[C@@H](N(CCC2CCCCO2)CC2CCCC2)[C@H](c2ccc(C(F)(F)F)cc2)C1 (stereo partly drawn) [Example 41, {(1R,3S,4R)-4-{(cyclopentylmethyl)[2-(tetrahydro-2H-pyran-2-yl)ethyl]amino}-3-[4-(trifluoromethyl)phenyl]cyclohexyl}acetic acid, trifluoroacetate salt]	5630
CCOc1ccc(CN(CC(C)C)[C@@H]2CC[C@@H](CC(=O)O)C[C@H]2c2ccc(C(F)(F)F)cc2)cc1 [Example 57, {(1R,3S,4R)-4-[(4-ethoxybenzyl)(isobutyl)amino]-3-[4-(trifluoromethyl)phenyl]cyclohexyl}acetic acid, trifluoroacetate salt]	171
O=C(O)C[C@@H]1CC[C@@H](N(CCC(F)(F)F)CC2CCCC2)[C@H](c2ccc(Cl)cc2)C1 [Example 48, {(1R,3S,4R)-3-(4-chlorophenyl)-4-[(cyclopentylmethyl)(3,3,3-trifluoropropyl)amino]cyclohexyl}acetic acid, trifluoroacetate salt]	441
N#Cc1ccc([C@@H]2O[C@H](CC(=O)O)CC[C@H]2N(CC2CCCC2)CC2CCCC2)cc1 [Example 46, [(2S,5R,6S)-5-[bis(cyclopentylmethyl)amino]-6-(4-cyanophenyl)tetrahydro-2H-pyran-2-yl]acetic acid, ammonium salt]	2550
O=C(O)C[C@@H]1CC[C@@H](N(CC2CCCC2)CC2CCC2)[C@H](c2ccc(C(F)(F)F)cc2)C1 [Example 50, {(1R,3S,4R)-4-[(cyclobutylmethyl) (cyclopentyl)methyl)amino]-3-[4-(trifluoromethyl)phenyl] cyclohexyl}acetic acid, ammonium salt]	463
CC(C)(C)CCN(CC1CCCC1)[C@@H]1CC[C@@H](CC(=O)O)C[C@H]1c1ccc(C(F)(F)F)cc1 [Example 35, {(1R,3S,4R)-4-[(cyclopentylmethyl)(3,3-dimethylbutyl)amino]-3-[4-(trifluoromethyl)phenyl]cyclohexyl}acetic acid, ammonium salt]	516
O=C(O)C[C@@H]1CC[C@@H](N(Cc2ccc3nonc3c2)CC2(F)CCCCC2)[C@H](c2ccc(C(F)(F)F)cc2)C1 [Example 65, {(1R,3S,4R)-4-{(2,1,3-benzoxadiazol-5-ylmethyl)[(1-fluorocyclohexyl)methyl]amino}-3-[4-(trifluoromethyl)phenyl]cyclohexyl}acetic acid, trifluoroacetate salt]	509
CC(C)CN(Cc1ccc(C(C)(C)C)cc1)[C@@H]1CC[C@@H](CC(=O)O)C[C@H]1c1ccc(C(F)(F)F)cc1 [Example 66, {(1R,3S,4R)-4-[(4-tert-butylbenzyl)(isobutyl)amino]-3-[4-(trifluoromethyl)phenyl]cyclohexyl}acetic acid, trifluoroacetate salt]	268
O=C(O)C[C@@H]1CC[C@@H](N(Cc2ccc3c(c2)CCO3)CC2(F)CCCCC2)[C@H](c2ccc(C(F)(F)F)cc2)C1 [Example 61, {(1R,3S,4R)-4-{(2,3-dihydro-1-benzofuran-5-ylmethyl)[(1-fluorocyclohexyl)methyl]amino}-3-[4-(trifluoromethyl)phenyl]cyclohexyl}acetic acid, trifluoroacetate salt]	607
CC(C)CN(CC1=CCCCC1)[C@@H]1CC[C@@H](CC(=O)O)C[C@H]1c1ccc(C(F)(F)F)cc1 [Example 60, {(1R,3S,4R)-4-[(cyclohex-1-en-1-ylmethyl)(isobutyl)amino]-3-[4-(trifluoromethyl)phenyl]cyclohexyl}acetic acid, trifluoroacetate salt]	154
CCc1csc(CN(CC2(F)CCCCC2)[C@@H]2CC[C@@H](CC(=O)O)C[C@H]2c2ccc(C(F)(F)F)cc2)n1 [Example 64, {(1R,3S,4R)-4-{[(4-ethyl-1,3-thiazol-2-yl)methyl][(1-fluorocyclohexyl)methyl]amino}-3-[4-(trifluoromethyl)phenyl]cyclohexyl}acetic acid, trifluoroacetate salt]	840
CC(C)CCN(Cc1nccs1)[C@@H]1CC[C@@H](CC(=O)O)C[C@H]1c1ccc(C(F)(F)F)cc1 [Example 33, {(1R,3S,4R)-4-[(3-methylbutyl)(1,3-thiazol-2-ylmethyl)amino]-3-[4-(trifluoromethyl)phenyl]cyclohexyl}acetic acid, trifluoroacetate acid]	3020
O=C(O)C[C@@H]1CC[C@@H](N(CC2CCCCC2)C2CCOCC2)[C@H](c2ccc(C(F)(F)F)cc2)C1 [Example 31, {(1R,3S,4R)-4-[(cyclohexylmethyl)(tetrahydro-2H-pyran-4-yl)amino]-3-[4-(trifluoromethyl)phenyl]cyclohexyl}acetic acid, ammonium salt]	1300

Same assay, conditions: human WT-APP overexpressing CHO cells; geometric mean of 2 determinations unless otherwise indicated (footnote 2: 6-14 determinations); read-out: Aβ 42B IC50

Structure (SMILES)	IC50 [nM]
O=C(O)C[C@@H]1CC[C@@H](N(CC2CCCC2)CC2CCCC2)[C@H](c2ccc(C(F)(F)F)cc2)C1 [Example 1, {(1R,3S,4R)-4-[bis(cyclopentylmethyl)amino]-3-[4-(trifluoromethyl)phenyl]cyclohexyl}acetic acid]	229
CC(C)CCN(CCC(C)C)[C@@H]1CC[C@@H]([C@H](C)C(=O)O)C[C@H]1c1ccc(C(F)(F)F)cc1 (single isomer, unassigned) [Example 8]	1580
O=C(O)C[C@@H]1CC[C@@H](N(Cc2ccccc2)CC2CCCC2)[C@H](c2ccc(C(F)(F)F)cc2)C1 [Example 2, {(1R,3S,4R)-4-[benzyl(cyclopentylmethyl)amino]-3-[4-(trifluoromethyl)phenyl]cyclohexyl}acetic acid]	139
CC(C)CCN(CCC(C)C)[C@@H]1CC[C@@H]([C@@H](C)C(=O)O)C[C@H]1c1ccc(C(F)(F)F)cc1 (single isomer, unassigned) [Example 7]	1750
